Measured values from PMC4232212 (Clinical cancer research : an official journal of the …, 2009).

Assays:
CXCR1 = target: T1, CXCR1 (Homo sapiens, UniProt P25024); assay: Ki calculated from IC50 by the Cheng-Prusoff equation; type: binding; conditions: read-out: KiCXCR1 (nmol/L)
T1 sequence (P25024 1-350): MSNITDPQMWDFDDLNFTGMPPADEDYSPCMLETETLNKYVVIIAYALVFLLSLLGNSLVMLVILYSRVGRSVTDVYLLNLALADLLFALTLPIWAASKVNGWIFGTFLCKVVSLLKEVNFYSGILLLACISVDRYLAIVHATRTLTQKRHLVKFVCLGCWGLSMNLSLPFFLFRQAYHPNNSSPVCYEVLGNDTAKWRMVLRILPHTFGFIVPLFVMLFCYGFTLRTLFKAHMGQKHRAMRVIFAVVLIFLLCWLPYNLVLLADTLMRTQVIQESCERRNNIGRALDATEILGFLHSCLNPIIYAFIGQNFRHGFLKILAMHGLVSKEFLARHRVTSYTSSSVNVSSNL

CXCR2 = target: T2, CXCR2 (Homo sapiens, UniProt P25025); assay: as above; type: binding; conditions: read-out: KiCXCR2 (nmol/L)
T2 sequence (P25025 1-360): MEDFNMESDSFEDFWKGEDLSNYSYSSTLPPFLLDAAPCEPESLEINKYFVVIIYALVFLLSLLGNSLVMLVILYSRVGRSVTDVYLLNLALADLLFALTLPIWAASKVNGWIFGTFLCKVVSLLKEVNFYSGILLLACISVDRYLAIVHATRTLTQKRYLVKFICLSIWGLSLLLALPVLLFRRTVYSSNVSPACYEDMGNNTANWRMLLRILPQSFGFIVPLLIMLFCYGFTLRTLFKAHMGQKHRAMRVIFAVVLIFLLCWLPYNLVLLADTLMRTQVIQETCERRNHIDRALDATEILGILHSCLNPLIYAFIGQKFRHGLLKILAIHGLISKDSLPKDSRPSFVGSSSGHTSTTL

Substance: SCH-479833
- Ki (CXCR1): 7 nmol/L
- Ki (CXCR2): 0.17 nmol/L
